Article PMC10041525, “New Dual Inhibitors of Bacterial Topoisomerases with Broad-Spectrum Antibacterial Activity and In Vivo Efficacy against Vancomycin-Intermediate Staphylococcus aureus” (Journal of Medicinal Chemistry, 2023)
“And” between values parts separate entries of the source, which are not always exact repeats. Equal values may be shown once.

Key:
P. aeruginosa ATCC 27853 = experiment: IHMA QC MIC; format: cell-based
[1] = system: 100 A. baumannii strains (50 MDR, 50 non-MDR); experiment: MIC broth microdilution at IHMA Europe, panel of 100 strains; format: cell-based

piperacillin/tazobactam [Piperacillin Tazobactam]
0.5 µg/mL: MIC ([1]; A. baumannii IHMA 2014931, South Africa 2019, Non-MDR)
≤0.25 µg/mL: MIC ([1]; A. baumannii IHMA 1769393, Lithuania 2018, Non-MDR) | MIC ([1]; A. baumannii IHMA 1769910, Israel 2018, Non-MDR) | MIC ([1]; A. baumannii IHMA 1790317, Czech Republic 2018, Non-MDR) | MIC ([1]; A. baumannii IHMA 1790916, Romania 2018, Non-MDR) | MIC ([1]; A. baumannii IHMA 1795669, Tunisia 2018, Non-MDR) | MIC ([1]; A. baumannii IHMA 1821468, South Africa 2018, Non-MDR) | MIC ([1]; A. baumannii IHMA 1829500, Georgia 2018, Non-MDR) | MIC ([1]; A. baumannii IHMA 1849829, Kuwait 2018, Non-MDR) | MIC ([1]; A. baumannii IHMA 1857118, Slovenia 2018, Non-MDR) | MIC ([1]; A. baumannii IHMA 1863631, France 2018, Non-MDR) | MIC ([1]; A. baumannii IHMA 1870054, United States 2018, Non-MDR) | MIC ([1]; A. baumannii IHMA 1884428, Italy 2018, Non-MDR) | MIC ([1]; A. baumannii IHMA 1884990, Germany 2018, Non-MDR) | MIC ([1]; A. baumannii IHMA 1900538, Turkey 2018, Non-MDR) | MIC ([1]; A. baumannii IHMA 1913773, Kenya 2018, Non-MDR) | MIC ([1]; A. baumannii IHMA 1926285, Qatar 2018, Non-MDR) | MIC ([1]; A. baumannii IHMA 1967860, Spain 2019, Non-MDR) | MIC ([1]; A. baumannii IHMA 1986678, Turkey 2019, Non-MDR) | MIC ([1]; A. baumannii IHMA 1995161, Czech Republic 2019, Non-MDR) | MIC ([1]; A. baumannii IHMA 2019315, Romania 2019, Non-MDR) | MIC ([1]; A. baumannii IHMA 2031511, Greece 2019, Non-MDR) | MIC ([1]; A. baumannii IHMA 2034657, Tunisia 2019, Non-MDR) | MIC ([1]; A. baumannii IHMA 2058329, Slovenia 2019, Non-MDR) | MIC ([1]; A. baumannii IHMA 2065587, France 2019, Non-MDR) | MIC ([1]; A. baumannii IHMA 2129256, Qatar 2019, Non-MDR) | MIC ([1]; A. baumannii IHMA 2157614, Australia 2020, Non-MDR) | MIC ([1]; A. baumannii IHMA 2183849, Argentina 2020, Non-MDR) | MIC ([1]; A. baumannii IHMA 2184382, Japan 2020, Non-MDR)
2 µg/mL: MIC ([1]; A. baumannii IHMA 2178574, Ukraine 2020, Non-MDR) | MIC ([1]; A. baumannii IHMA 2180134, Malaysia 2020, Non-MDR)
4 µg/mL and 8 µg/mL: MIC (QC, repeated tests) (P. aeruginosa ATCC 27853)
>128 µg/mL: MIC ([1]; A. baumannii IHMA 1769782, Israel 2018, MDR) | MIC ([1]; A. baumannii IHMA 1791877, Israel 2018, MDR) | MIC ([1]; A. baumannii IHMA 1792961, Jordan 2018, MDR) | MIC ([1]; A. baumannii IHMA 1814276, Lebanon 2018, MDR) | MIC ([1]; A. baumannii IHMA 1815198, Kuwait 2018, MDR) | MIC ([1]; A. baumannii IHMA 1815856, Israel 2018, MDR) | MIC ([1]; A. baumannii IHMA 1849819, Kuwait 2018, MDR) | MIC ([1]; A. baumannii IHMA 1926288, Qatar 2018, MDR) | MIC ([1]; A. baumannii IHMA 1963732, Turkey 2019, MDR) | MIC ([1]; A. baumannii IHMA 1971673, Latvia 2019, MDR) | MIC ([1]; A. baumannii IHMA 1983151, Greece 2019, MDR) | MIC ([1]; A. baumannii IHMA 1984665, Lithuania 2019, MDR) | MIC ([1]; A. baumannii IHMA 1986738, Turkey 2019, MDR) | MIC ([1]; A. baumannii IHMA 1987162, Croatia 2019, MDR) | MIC ([1]; A. baumannii IHMA 1993615, Turkey 2019, MDR) | MIC ([1]; A. baumannii IHMA 1994284, Italy 2019, MDR) | MIC ([1]; A. baumannii IHMA 2003279, Turkey 2019, MDR) | MIC ([1]; A. baumannii IHMA 2020360, Croatia 2019, MDR) | MIC ([1]; A. baumannii IHMA 2031524, Greece 2019, MDR) | MIC ([1]; A. baumannii IHMA 2035089, Serbia 2019, MDR) | MIC ([1]; A. baumannii IHMA 2038976, Hungary 2019, MDR) | MIC ([1]; A. baumannii IHMA 2051503, Serbia 2019, MDR) | MIC ([1]; A. baumannii IHMA 2154584, Israel 2020, MDR) | MIC ([1]; A. baumannii IHMA 2155340, Kenya 2020, MDR) | MIC ([1]; A. baumannii IHMA 2156634, Turkey 2020, MDR) | MIC ([1]; A. baumannii IHMA 2156709, Turkey 2020, MDR) | MIC ([1]; A. baumannii IHMA 2177232, Lithuania 2020, MDR) | MIC ([1]; A. baumannii IHMA 2177489, Lithuania 2020, MDR) | MIC ([1]; A. baumannii IHMA 2180142, Malaysia 2020, MDR) | MIC ([1]; A. baumannii IHMA 2181370, Morocco 2020, MDR) | MIC ([1]; A. baumannii IHMA 2183729, Argentina 2020, MDR) | MIC ([1]; A. baumannii IHMA 2193375, Venezuela 2020, MDR)
8 µg/mL: MIC ([1]; A. baumannii IHMA 1957343, Portugal 2019, Non-MDR) | MIC ([1]; A. baumannii IHMA 1975075, Israel 2019, Non-MDR)
16 µg/mL: MIC ([1]; A. baumannii IHMA 1830924, United Kingdom 2018, Non-MDR) | MIC ([1]; A. baumannii IHMA 1977077, Kuwait 2019, Non-MDR)
4 µg/mL: MIC ([1]; A. baumannii IHMA 1997936, Morocco 2019, Non-MDR) | MIC ([1]; A. baumannii IHMA 1999178, Belgium 2019, Non-MDR) | MIC ([1]; A. baumannii IHMA 2014367, Jordan 2019, Non-MDR) | MIC ([1]; A. baumannii IHMA 2035134, Serbia 2019, Non-MDR) | MIC ([1]; A. baumannii IHMA 2099294, United Kingdom 2019, Non-MDR)
